Laboratory results: USRE39197E1, “Cell adhesion-inhibiting antiinflammatory and immune-suppressive compounds” (Abbott Laboratories, priority 1998, dated 2006)

Tests used:
[1] = system: adherence of JY-8 cells (expressing LFA-1) to immobilized ICAM-1; assay: ICAM-1/JY-8 Cell Adhesion Assay; assay type: cell-based, human
Protocol: ICAM-1/JT-8 Cell Adhesion Assay
For measurment measurement of inhibotory inhibitory activity in the cell-based adhesion assay, 96-well microtiter plates are were coated with 70 μL of recombinat recombinant ICAM-1/Ig (ICOS Corporation) at a concentration of 5 μg/mL in D-PBS w/o without Ca^++ or Mg++ or Mg^++ overnight at 4° C. The wells are were then washed twice with D-PBS and blocked by addition of 200 μL of D-PBS, 5% fish skin gelatin by incubation for 1 hour at room temperature. […] The percent inhibition of a candidate compound at a given concentration is was calculated using the following equation: [formula] and these concentration/inhibition data are were used to generate does response curves, from which IC50 values are were derived.

[2] = system: adhesion of JY-8 cells (expressing LFA-1) to immobilized ICAM-3; assay: ICAM-3/JY-8 Cell Adhesion Assay; assay type: cell-based, human; settings: 0.6 μM compound, JY-8 cells on immobilized ICAM-3/Ig
Protocol: As such, it is expected that these compounds should block the interaction of LFA-1 with other CAM's. […] Compounds of the present invention may be evaluated for their ability to block the adhesion of JY-8 cells (a human EBV-transformed B cell line expressing LFA-1 on its surface) to immobilized ICAM-3, as follows:
ICAM-3/JY-8 Cell Adhesion Assay
For measurement of inhibitory activity in the cell-based adhesion assay, 96-well microtiter plates are were coated with 50 μL of recombinant ICAM-3/Ig (ICOS Corporation) at a concentration of 10 μg/mL in D-PBS w/o without Ca^++ or Mg^++ overnight at 4° C. The wells are were then washed twice with D-PBS, blocked by addition of 100 μL of D-PBS, 1% bovine serum albumin (BSA) by incubation for 1 hour at room temperature, and washed once with RPMI-1640/5% heat-inactivated fetal bovine serum (adhesion buffer). Dilutions of compounds to be assayed for ICAM-3/LFA-1 antagonistic activity are were prepared in adhesion buffer from 10 mM stock solutions in DMSO and 100 μL are were added to duplicate wells. JY-8 cells (a human EBV-transformed B cell line expressing LFA-1 on its surface; 100 μL at 0.75×10^6 cells/ml mL in adhesion buffer) are were then added to the wells. Microtiter plates are were incubated for 30 minutes at room temperature; the adherent cells are were then fixed with 50 μL of 14% glutaraldehyde/D-PBS and were incubated for an additional 90 minutes. The wells are were washed gently with dH2O; 50 μL of dH2O is was added, following followed by 50 μL of 1% crystal violet. After 5 minutes the plates are were washed 3× times with dH2O; 75 μL of dH2O and 225 μL of 95% EtOH are were added to each well to extract the crystal violet from the cells. Absorbance is was measured at […] in an ELISA plate reader. The percent inhibition of a candidate compound is was calculated using the following equation. [formula]

[3] = molecular target: T1, interaction between the integrin LFA-1 and its adhesion partner ICAM-1 (Homo sapiens, UniProt P20701); assay: ICAM-1/LFA-1 Biochemical Interaction Assay; assay type: binding; settings: 4 μM compound; recombinant LFA-1, biotinylated ICAM-1/Ig
T1 construct: Recombinant LFA-1 (100 μL of 0.7 μg/ml mL, ICOS Corporation) in D-PBS; purchased ICOS Corporation
T1 sequence (P20701 26-1170): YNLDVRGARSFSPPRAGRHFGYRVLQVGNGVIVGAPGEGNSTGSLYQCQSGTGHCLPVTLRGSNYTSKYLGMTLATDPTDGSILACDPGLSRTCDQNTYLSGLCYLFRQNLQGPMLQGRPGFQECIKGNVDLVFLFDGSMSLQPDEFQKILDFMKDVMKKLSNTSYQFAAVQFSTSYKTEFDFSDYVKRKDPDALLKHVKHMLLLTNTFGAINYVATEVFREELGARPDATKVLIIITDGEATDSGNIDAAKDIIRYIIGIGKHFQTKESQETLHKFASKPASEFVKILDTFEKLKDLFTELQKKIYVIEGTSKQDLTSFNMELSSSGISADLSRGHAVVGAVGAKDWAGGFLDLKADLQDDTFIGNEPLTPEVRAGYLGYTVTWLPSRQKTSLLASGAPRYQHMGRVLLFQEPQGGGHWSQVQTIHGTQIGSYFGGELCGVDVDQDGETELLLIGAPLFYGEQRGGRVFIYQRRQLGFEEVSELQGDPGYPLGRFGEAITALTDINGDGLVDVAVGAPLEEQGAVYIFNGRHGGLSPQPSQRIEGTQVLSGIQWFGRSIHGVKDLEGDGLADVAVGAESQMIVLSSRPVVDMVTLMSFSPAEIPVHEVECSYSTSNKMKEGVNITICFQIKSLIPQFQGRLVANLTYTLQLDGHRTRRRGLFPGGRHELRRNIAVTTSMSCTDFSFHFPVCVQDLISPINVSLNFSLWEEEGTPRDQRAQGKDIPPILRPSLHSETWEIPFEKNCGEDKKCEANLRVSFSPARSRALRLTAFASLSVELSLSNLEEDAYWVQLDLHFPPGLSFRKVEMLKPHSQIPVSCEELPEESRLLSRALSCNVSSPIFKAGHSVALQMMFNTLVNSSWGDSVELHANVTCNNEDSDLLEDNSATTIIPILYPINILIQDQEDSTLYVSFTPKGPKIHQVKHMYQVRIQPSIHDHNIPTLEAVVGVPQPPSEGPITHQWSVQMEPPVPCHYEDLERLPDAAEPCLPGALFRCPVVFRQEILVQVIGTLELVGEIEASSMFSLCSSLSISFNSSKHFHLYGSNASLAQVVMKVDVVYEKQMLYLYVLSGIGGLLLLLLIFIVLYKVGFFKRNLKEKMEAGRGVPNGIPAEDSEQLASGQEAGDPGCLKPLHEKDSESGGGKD
T1 sequence (P05107 23-769 partner): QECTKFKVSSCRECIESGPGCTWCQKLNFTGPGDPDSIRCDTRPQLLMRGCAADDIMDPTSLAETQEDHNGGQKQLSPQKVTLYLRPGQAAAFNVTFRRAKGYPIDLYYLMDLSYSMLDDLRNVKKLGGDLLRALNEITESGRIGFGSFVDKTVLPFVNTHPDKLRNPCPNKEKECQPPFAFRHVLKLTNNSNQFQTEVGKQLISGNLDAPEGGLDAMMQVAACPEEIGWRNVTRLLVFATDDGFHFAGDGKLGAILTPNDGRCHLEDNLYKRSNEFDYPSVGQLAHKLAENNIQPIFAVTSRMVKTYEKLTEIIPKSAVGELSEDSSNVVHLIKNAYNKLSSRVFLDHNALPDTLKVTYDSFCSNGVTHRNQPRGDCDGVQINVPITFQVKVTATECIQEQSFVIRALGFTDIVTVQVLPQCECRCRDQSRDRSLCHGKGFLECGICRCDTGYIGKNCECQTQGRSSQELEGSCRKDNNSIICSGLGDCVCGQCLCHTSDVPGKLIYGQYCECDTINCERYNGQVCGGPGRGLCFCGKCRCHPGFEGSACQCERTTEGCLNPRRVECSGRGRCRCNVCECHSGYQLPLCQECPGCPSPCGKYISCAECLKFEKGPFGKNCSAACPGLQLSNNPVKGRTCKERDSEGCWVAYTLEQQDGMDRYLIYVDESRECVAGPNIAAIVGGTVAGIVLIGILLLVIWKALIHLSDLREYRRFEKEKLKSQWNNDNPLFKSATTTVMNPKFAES
Protocol: Compounds that antagonize the interaction between ICAM-1 and LFA-1 can be identified, and their activities quantitated, using both biochemical and cell-based adhesion assays. A primary biochemical assay measures the ability of the compound in question to block the interaction between the integrin LFA-1 and its adhesion partner ICAM-1, as described below:
ICAM-1/LFA-1 Biochemical Interaction Assay
In the biochemical assay, 100 μL of anti-LFA-1 antibody (ICOS Corporation) at a concentration of 5 μg/ml mL in Dulbecco's phosphate-buffered saaline (D-PBS) is used to coat wells of a 96-well microtiter plate overnight at 4° C. The wells are were then washed twice with wash buffer (D-PBS w/o Ca^++ or Mg^++, 0.05% Tween 20) and blocked by addition of 200 μL of D-PBS, 5% fish skin gelatin. Recombinant LFA-1 (100 μL of 0.7 μg/ml mL, ICOS Corporation) in D-PBS is was then added to each well. Incubation continues continued for 1 hour at room temperature and the wells are were washed twice with wash buffer. Serial dilutions of compounds being assayed as ICAM-1/LFA-1 antagonists, were prepared as 10 mM stock solutions in dimethyl sulfoxide (DMSO), are were diluted in D-PBS, 2 mM MgCl2, 1% fish skin gelatin and 50 μL of each dilution was added to duplicate wells. This is was followed by the addition of 50 μL of 0.8 μg/ml mL biotinylated recombinant ICAM-1/Ig (ICOS Corporation) to the wells and the plates are were incubated at room temperature for 1 hour. The wells are were then washed twice with wash buffer and 100 μL of Europium-labeled Streptavidin (Wallac Oy) diluted 1:100 in Delfia assay buffer (Wallac Oy), are was then added to the wells. Incubation proceeds proceeded for 1 hour at room temperature. The wells are were washed eight times with wash buffer and 100 μL of enhancement solution (Wallac Oy, cat. No. 1244-105) are was added to each well. Incubation proceeds proceeded for 5 minutes with constant mixing. Time-resolved fluorimetry measurements are were made using the a Victor 1420 Multilabel Counter (Wallac Oy) and the percent inhibition of each candidate compound is was calculated using the following equation: [formula] where “background” refers to wells that are were not coated with anti-LFA-1 antibody.

[4] = Homo sapiens, JY-8, JY-8 cells on immobilized ICAM-1/Ig
[5] = JY-8 cells on immobilized ICAM-1/Ig

| Molecule | IC50 [1, 4] [nM] | inhibition at 4 µM [3] [%] | IC50 [1, 5] [nM] | % inhibition @ 4 μM [3] [%] | further results |
| --- | --- | --- | --- | --- | --- |
| O=C(/C=C/c1ccc(Sc2ccc(Cl)cc2Cl)c(Cl)c1)NCCO [Example 3, (2,4-Dichlorophenyl)[2-chloro-4-(E-((2-hydroxyethylamino)carbonyl)ethenyl)phenyl]sulfide] | 2500 | 75 | – | – | – |
| (2-Chlorophenyl)[2-chloro-4-(E-((4-acetylpiperazin-1-yl)carbonyl))2-propenyl)phenyl]sulfide [Example 52] | – | – | 420 | 86 | – |
| O=C(/C=C/c1ccc(Sc2ccc(Cl)cc2Cl)c(Cl)c1)N1CCOCC1 [Example 7, (2,4-Dichlorophenyl)[2-chloro-4-(E-((1-morpholinyl)carbonyl)ethenyl)phenyl]sulfide] | – | – | 1200 | 87 | – |
| O=C(/C=C/c1ccccc1Sc1ccc(Cl)cc1Cl)NCCCCCCO [Example 1, (2,4-Dichlorophenyl)[2-(E-((6-hydroxyhexylamino)carbonyl)ethenyl)phenyl]sulfide] | 2100 | 75 | – | – | – |
| CN1CCN(C(=O)/C=C/c2ccc(Sc3ccc(Cl)cc3Cl)c(Cl)c2)CC1 [Example 8, (2,4-Dichlorophenyl)[2-chloro-4-(E-((4-methylpiperazin-1-yl)carbonyl)ethenyl)phenyl]sulfide] | 2900 | 74 | – | – | – |
| O=C(/C=C/c1ccc(Sc2ccccc2Br)c(Cl)c1)N1CCCCC1 [Example 19] | – | – | 450 | 93 | – |
| CC(=O)N1CCCN(C(=O)/C=C/c2ccc(Sc3ccccc3Br)c(Cl)c2)CC1 [Example 22, (2-Bromophenyl)[2-chloro-4-(E-((4-acetylhomopiperazin-1-yl)carbonyl)ethenyl)phenyl]sulfide] | 200 | 90 | – | – | – |
| O=C(/C=C/c1ccc(Sc2ccccc2CO)c(Cl)c1)N1CCOCC1 [Example 11, (2-(Hydroxymethyl)phenyl)[2-chloro-4-(E-((1-morpholinyl)carbonyl)ethenyl)phenyl]sulfide] | – | – | 260 | 87 | – |
| O=C(/C=C/c1ccc(Sc2ccc(Cl)cc2Cl)c(Cl)c1)N1CCN(CCOCCO)CC1 [Example 14] | – | – | 790 | 82 | – |
| O=C(/C=C/c1ccc(Sc2ccc(Cl)cc2Cl)c(Cl)c1)N(CCO)CCO [Example 5, (2,4-Dichlorophenyl)[2-chloro-4-(E-((bis-(2-hydroxyethyl)amino)carbonyl)ethenyl)phenyl]sulfide] | 2900 | 73 | – | – | – |
| O=C(/C=C/c1ccc(Sc2ccccc2Br)c(Cl)c1)N1CCC(n2c(=O)[nH]c3ccccc32)CC1 [Example 24] | – | – | 8000 | 80 | – |

Continued, in another order:

| IC50 [1, 4] [nM] | inhibition at 4 µM [3] [%] | IC50 [1, 5] [nM] | % inhibition @ 4 μM [3] [%] | Molecule | further results |
| --- | --- | --- | --- | --- | --- |
| 10 | – | – | – | CC(=O)N1CCN(C(=O)/C=C/c2ccc(Sc3ccccc3C(C)C)c([N+](=O)[O-])c2)CC1 [Example 50, (2-iso-Propylphenyl)[2-nitro-4-(E-((4-acetylpiperazin-1-yl)carbonyl)ethenyl)phenyl]sulfide] | inhibition at 0.6 µM ([2]; Homo sapiens): 100% |
| 370 | 82 | – | – | CC(=O)N1CCN(C(=O)/C=C/c2ccc(Sc3ccccc3N)c([N+](=O)[O-])c2)CC1 [Example 47, (2-Aminophenyl)[2-nitro-4-(E-((4-acetylpiperazin-1-yl)carbonyl)ethenyl)phenyl]sulfide] | – |
| – | – | 100 | 82 | CC(C)NC(=O)CN1CCN(Cc2ccccc2Sc2ccc(/C=C/C(=O)N3CCOCC3)cc2Cl)CC1 [Example 55, (2-(4-(iso-Propylaminocarbonylmethyl)piperazin-1-ylmethyl)phenyl)[2-chloro-4-(E-((1-morpholinyl)carbonyl)ethenyl)phenyl]sulfide] | – |
| – | – | 340 | – | O=C(/C=C/c1ccc(Sc2ccccc2NCCCN2CCOCC2)c(Cl)c1)N1CCOCC1 [Example 62, (2-((3-(1-Morpholinyl)propyl)-1-amino)phenyl)[2-chloro-4-(E-((1-morpholinyl)carbonyl)ethenyl)phenyl]sulfide] | % inhibition @ 0.6 μM [2]: 100% |
| 70 | 78 | – | – | O=C(O)CN1CCN(C(=O)/C=C/c2ccc(Sc3ccc(Cl)cc3Cl)c([N+](=O)[O-])c2)CC1 [Example 44, (2,4-Dichlorophenyl)[2-nitro-4-(E-((4-(carboxymethyl)piperazin-1-yl)carbonyl)ethenyl)phenyl]sulfide] | – |
| 280 | 90 | – | – | CCN(CC)C(=O)CN1CCN(C(=O)/C=C/c2ccc(Sc3ccc(Cl)cc3Cl)c([N+](=O)[O-])c2)CC1 [Example 40, (2,4-Dichlorophenyl)[2-nitro-4-(E-((4-(diethylaminocarbonylmethyl)piperazin-1-yl)carbonyl)ethenyl)phenyl]sulfide] | – |
| 850 | 82 | – | – | O=C(/C=C/c1ccc(Sc2ccc(Cl)cc2Cl)c(Br)c1)NCCCN1CCCC1=O [Example 63, (2,4-Dichlorophenyl)[2-bromo-4-(E-((3-(2-oxopyrrolidin-1-yl)propylamino)carbonyl)ethenyl)phenyl]sulfide] | – |
| 690 | 84 | – | – | CC(=O)N1CCN(C(=O)/C=C/c2ccc(Sc3ccccc3C(C)(C)C)c([N+](=O)[O-])c2)CC1 [Example 51, (2-tert-Butylphenyl)[2-nitro-4-(E-((4-acetylpiperazin-1-yl)carbonyl)ethenyl)phenyl]sulfide] | – |
| – | – | 220 | 90 | O=Cc1ccccc1Sc1ccc(/C=C/C(=O)N2CCOCC2)cc1Cl [Example 57, (2-Formylphenyl)[2-chloro-4-(E-((1-morpholinyl)carbonyl)ethenyl)phenyl]sulfide] | – |
| – | – | 360 | – | O=C(/C=C/c1ccc(Sc2ccccc2CN2CCN(Cc3ccc4c(c3)OCO4)CC2)c(Cl)c1)N1CCOCC1 [Example 54, (2-(4-(1,3-Benzodioxolyl-5-methyl)piperazin-1-ylmethyl)phenyl)[2-chloro-4-(E-((1-morpholinyl)carbonyl)ethenyl)phenyl]sulfide] | % inhibition @ 0.6 μM [2]: 100% |
| – | – | 200 | – | O=C(/C=C/c1ccc(Sc2ccccc2/C=C/C(=O)N2CCOCC2)c(Cl)c1)N1CCOCC1 [Example 59, (2-(E-((1-Morpholinyl)carbonyl)ethenyl)phenyl)[2-chloro-4-(E-((1-morpholinyl)carbonyl)ethenyl)phenyl]sulfide] | % inhibition @ 0.6 μM [2]: 100% |
